Results taken from ChEMBL document CHEMBL5126567, “Synthesis of novel immunomodulatory 1,4-disubstituted bis-1,2,3-triazoles by using click chemistry and their intracellular mechanism of action” (Bioorg Med Chem Lett, 2022).
Active and inactive are the calls of the source. The calls are words filed in the database; no cut-off is given here.

How the values were obtained:
J774.2 [1] = test: Antiinflammatory activity in LPS-induced mouse J774.2 cells assessed as decrease in TNF-alpha level at 1 to 10 ug/mL measured after 24 hrs by ELISA; assay type: functional, cell-based; settings: dose 1-10 µg/ml
J774.2 [2] = test: Inhibition of PI3K/AKT signalling pathway in LPS-induced mouse J774.2 cells assessed as decrease in phosphorylated PI3K level at 10 ug/mL after 24 hrs by flow cytometry; assay type: cell-based; settings: dose 10.0 µg/ml
J774.2 [3] = test: Antiinflammatory activity in LPS-induced mouse J774.2 cells assessed as decrease in GMCSF level at 1 to 10 ug/mL measured after 24 hrs by ELISA; assay type: functional, cell-based; settings: dose 1-10 µg/ml
J774.2 [4] = test: Cytotoxicity against mouse J774.2 cells assessed as cell viability; assay type: toxicity, cell-based
J774.2 [5] = test: Antiinflammatory activity in LPS-induced mouse J774.2 cells assessed as decrease in IL6 level at 1 to 10 ug/mL measured after 24 hrs by ELISA; assay type: functional, cell-based; settings: dose 1-10 µg/ml

| Structure (SMILES) | Activity (J774.2 [1]) | inhibition (J774.2 [2]) | Activity (J774.2 [3]) | Activity (J774.2 [4]) | Activity (J774.2 [5]) |
| --- | --- | --- | --- | --- | --- |
| O=C(Cn1cc(C2CC2)nn1)Nc1ccccc1NC(=O)Cn1cc(C2CC2)nn1 | Active | Active | Active | Non-Toxic | Active |
| O=C(Cn1cc(C2CCCC2)nn1)Nc1ccccc1NC(=O)Cn1cc(C2CCCC2)nn1 | Active | Active | Active | Non-Toxic | Active |
| CCOC(=O)c1cn(CC(=O)Nc2ccccc2NC(=O)Cn2cc(C(=O)OCC)nn2)nn1 | Active |  | Active | Non-Toxic | Active |
| O=C(Cn1cc(CC2CCCCC2)nn1)Nc1ccccc1NC(=O)Cn1cc(CC2CCCCC2)nn1 | Active | Active | Active | Non-Toxic | Active |
| O=C(Cn1cc(-c2ccccc2)nn1)Nc1ccccc1NC(=O)Cn1cc(-c2ccccc2)nn1 | Active |  | Active | Non-Toxic | Active |
| CCCC(C)c1cn(CC(=O)Nc2ccccc2NC(=O)Cn2cc(C(C)CCC)nn2)nn1 (stereo not drawn) | Active | Active | Active | Non-Toxic | Active |
